This is an account of results in patent US20050159333A1, “Methods of modulating smooth muscle contractility” (priority 2002, published 2005).

For orientation: EC50 means the concentration that produces a half-maximal response. For orientation: Ki means the equilibrium dissociation constant of an inhibitor or competing ligand from its target. The inhibition is the share of the control response that was lost under treatment.

Assay [1] concerns isolated male rat urinary bladder. Kind of assay: NKA-evoked contractions of isolated male rat urinary bladder strips (organ bath). The format is cell-based.
The test system is the same in assay [2]. Nature of the assay: carbachol-evoked contractions of isolated male rat urinary bladder strips (organ bath). Type of assay: cell-based.
The test system is the same in assay [3]. Kind of assay: electrically-evoked contractions of isolated male rat urinary bladder strips (organ bath). The format is cell-based.
For assay [4] the test system is unchanged. Nature of the assay: α,β-methylene ATP-evoked contractions of isolated male rat urinary bladder strips (organ bath). The format is cell-based. The note with it: for attenuation of α,β-methylene ATP-evoked bladder contractions: 10 μM inhibitor, 45 min, 10 μM α,β-methylene ATP.
Assay [5] has the same test system. Kind of assay: baseline bladder tension of isolated male rat urinary bladder strips. Type of assay: cell-based. The note with it: for decrease in baseline bladder tension from baseline / relaxation (decrease in baseline bladder tension): 10 μM, 45 min incubation; for effect on baseline bladder tension / bladder tone: absence of agonist-evoked contractile responses.

For assay [6] the test system is unchanged. Nature of the assay: contractile responses of isolated male rat urinary bladder to the PKC activator phorbol ester. Type of assay: cell-based.
Another assay deals with PKC from rat brain. Conditions: cited from earlier work.
A further assay has as its target PKC, human form (Homo sapiens, UniProt P17252). The note with it: 20 μM HA-1077; Davies et al. 2000; cited from earlier work.
Assay [7] addresses protein kinase C-related protein kinase 2 (PRK2) (Homo sapiens, UniProt Q16513). Conditions: Davies et al. 2000; cited from earlier work.
Assay [8] relates to isolated rabbit urinary bladder smooth muscle. The note with it: Jezior et al. 2001, cited from earlier work.
The test system of a further assay is isolated rabbit aorta. Conditions: Seto et al. 1991; cited from earlier work.
For assay [9], the system named is isolated male rat urinary bladder. Kind of assay: KCl-evoked contractions of isolated male rat urinary bladder strips (organ bath). Type of assay: cell-based.
Another assay has as its target ROCK II. The note with it: Ishizaki et al. 2000; cited from earlier work.
Another assay deals with PRK1 (protein kinase N) (Homo sapiens, UniProt Q16512). The note with it: cited from earlier work.
Chain of PRK1 (protein kinase N) (Q16512 whole entry, species assumed): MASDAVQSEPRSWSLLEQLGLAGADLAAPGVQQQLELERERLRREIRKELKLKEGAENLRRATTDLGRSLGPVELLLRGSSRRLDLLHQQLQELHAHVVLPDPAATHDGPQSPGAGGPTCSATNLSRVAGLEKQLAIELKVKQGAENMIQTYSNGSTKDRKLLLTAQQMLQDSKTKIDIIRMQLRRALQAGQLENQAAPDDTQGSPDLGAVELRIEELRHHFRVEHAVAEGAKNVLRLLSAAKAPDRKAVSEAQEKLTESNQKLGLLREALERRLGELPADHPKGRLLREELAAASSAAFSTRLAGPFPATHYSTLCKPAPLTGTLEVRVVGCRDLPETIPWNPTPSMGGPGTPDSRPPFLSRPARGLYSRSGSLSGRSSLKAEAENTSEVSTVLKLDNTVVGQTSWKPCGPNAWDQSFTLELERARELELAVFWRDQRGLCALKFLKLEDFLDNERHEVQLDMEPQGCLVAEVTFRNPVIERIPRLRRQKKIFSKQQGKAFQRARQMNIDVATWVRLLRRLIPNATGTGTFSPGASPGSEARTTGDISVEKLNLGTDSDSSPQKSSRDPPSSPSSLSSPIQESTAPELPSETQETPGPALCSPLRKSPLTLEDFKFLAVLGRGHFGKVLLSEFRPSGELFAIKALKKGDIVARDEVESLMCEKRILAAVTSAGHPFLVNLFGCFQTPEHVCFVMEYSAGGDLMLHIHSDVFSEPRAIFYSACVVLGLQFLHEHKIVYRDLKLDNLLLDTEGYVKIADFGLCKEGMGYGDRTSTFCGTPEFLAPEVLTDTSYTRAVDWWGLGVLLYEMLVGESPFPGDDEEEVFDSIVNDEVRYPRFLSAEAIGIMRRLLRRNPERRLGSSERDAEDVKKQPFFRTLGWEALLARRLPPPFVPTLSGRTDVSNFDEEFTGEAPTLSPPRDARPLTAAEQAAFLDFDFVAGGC
The test system of assay [10] is other serine/threonine protein kinases. The note with it: Davies et al. 2000; cited from earlier work.
The test system of assay [11] is isolated rabbit pulmonary artery. The note with it: Fu et al. 1998; cited from earlier work.
Where [12] appears, read: vehicle experiments, at 3×10^−7 M NKA.
The mark [13] stands for this setting: Y-27632 10 μM, unpublished observations.
Where [14] appears, read: Rattus norvegicus, read-out: antagonist affinity (pKb) (converted).
Where [15] appears, read: all frequencies (2, 4, 8, 16 Hz), Y-27632 10 μM, atropine 1 μM, α,β-methylene ATP 10 μM.

Several values for one entry are separate records, joined by “and”; a condition that tells them apart may be missing. Identical values can stand only once. Counter-ions that a name gives are not always drawn. Like-named read-outs stand apart in the source and are kept apart here.

Chain of protein kinase C-related protein kinase 2 (PRK2) (Q16513 whole entry, species assumed): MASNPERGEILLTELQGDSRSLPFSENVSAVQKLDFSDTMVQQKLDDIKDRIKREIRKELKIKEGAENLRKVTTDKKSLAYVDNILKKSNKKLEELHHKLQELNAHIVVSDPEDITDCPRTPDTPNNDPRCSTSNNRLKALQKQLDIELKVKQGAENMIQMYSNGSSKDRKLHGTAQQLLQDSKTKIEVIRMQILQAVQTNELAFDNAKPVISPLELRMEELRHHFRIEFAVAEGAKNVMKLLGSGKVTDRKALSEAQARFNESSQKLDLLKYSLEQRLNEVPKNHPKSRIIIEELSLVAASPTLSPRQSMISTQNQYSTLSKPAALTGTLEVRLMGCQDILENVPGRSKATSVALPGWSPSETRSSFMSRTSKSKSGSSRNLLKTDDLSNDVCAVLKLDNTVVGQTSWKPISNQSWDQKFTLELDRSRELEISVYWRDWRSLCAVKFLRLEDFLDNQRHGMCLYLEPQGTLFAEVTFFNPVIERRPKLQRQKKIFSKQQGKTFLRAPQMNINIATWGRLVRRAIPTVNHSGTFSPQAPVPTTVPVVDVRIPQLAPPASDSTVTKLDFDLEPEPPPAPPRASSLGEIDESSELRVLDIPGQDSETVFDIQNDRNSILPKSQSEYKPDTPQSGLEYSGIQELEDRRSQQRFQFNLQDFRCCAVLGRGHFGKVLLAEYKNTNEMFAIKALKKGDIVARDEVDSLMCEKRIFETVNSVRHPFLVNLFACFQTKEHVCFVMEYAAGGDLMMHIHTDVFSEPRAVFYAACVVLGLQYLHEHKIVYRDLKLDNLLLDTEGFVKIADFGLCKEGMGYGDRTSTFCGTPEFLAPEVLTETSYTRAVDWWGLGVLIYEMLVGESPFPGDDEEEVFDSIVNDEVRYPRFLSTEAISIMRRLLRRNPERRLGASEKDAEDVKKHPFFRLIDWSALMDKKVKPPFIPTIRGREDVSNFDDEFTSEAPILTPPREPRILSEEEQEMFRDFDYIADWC

Consider `CSCC[C@H](NC(=O)[C@H](CC(C)C)NC(=O)CNC(=O)[C@@H](NC(=O)[C@H](Cc1ccccc1)NC(=O)[C@H](CO)NC(=O)[C@H](CC(=O)O)NC(=O)[C@@H](NC(=O)[C@H](CCCCN)NC(=O)[C@@H](N)Cc1c[nH]cn1)[C@@H](C)O)C(C)C)C(N)=O` [NKA, Neurokinin A], for which the EC50 in assay [1] (read-out: NKA EC50 in the presence of Y-27632, 10 μM Y-27632) was found to be 0.0324 µM. Besides, in assay [1] (setting [12]), the “maximal response to NKA” value is 4.2 ± 0.4 g and the “maximal response to NKA as % of the response to 100 mM KCl” value was found to be 136.2±24.8%.

Turning to `C[N+](C)(C)CCOC(N)=O.[Cl-]` [carbachol, carbamylcholine chloride], the EC50 amounted to 1.03 ± 0.336 µM in assay [2] (Rattus norvegicus, read-out: carbachol EC50 in the presence of Y-27632) and 0.183 ± 0.0689 µM in assay [2] (Rattus norvegicus, vehicle experiments, read-out: carbachol EC50 in the absence of antagonist). Besides, the Emax at 10 µM in [2] (Rattus norvegicus, vehicle experiments, at 10^−5 M carbachol, read-out: maximal response to carbachol as % of the response to 100 mM KCl) stood at 105 ± 28.2%. Also, the “maximal response to carbachol” value in [2] (vehicle experiments, at 10^−5 M carbachol) amounted to 5.3 ± 0.9 g.

As to `NC1=N[C@H](O)[C@H]2[C@H]3O[C@]4(O)O[C@@H]([C@@H](O)[C@@]2(N1)[C@@H]4O)[C@]3(O)CO` [TTX, tetrodotoxin], the “effect on frequency-response curves to electrical stimulation” value in [3] is listed as “abolished”.

Regarding `O=S(=O)(c1cccc2cnccc12)N1CCCNCC1` [HA-1077, fasudil], the “attenuation of α,β-methylene ATP-evoked bladder contractions” value in assay [4] was 22.1±5.7% and 22±6%. In [5], the “decrease in baseline bladder tension from baseline” value worked out at 36.1±1.6%, the “relaxation (decrease in baseline bladder tension)” value is 0.30 ± 0.01 g and the “effect on baseline bladder tension / bladder tone” value is given as “decreased bladder tone”. Besides, in assay [6] (setting [13]), the “effect on contractile responses to the PKC activator phorbol ester” value (“effect on contractile responses” below) is given as “no inhibitory effects”. Further, the inhibition constant (Ki) at PKC from rat brain was 9.3 µM. Further, the “inhibitory effect on the human form of PKC” value on PKC, human form is “no significant inhibitory effects”. Also, the “effect on PRK2” value in [7] was “inhibited”. The “effect on bethanechol-evoked contractions” value in assay [8] was “attenuate”. Also, the “effect on PG-evoked contractions” value in the assay with isolated rabbit aorta is recorded as “inhibits”.

As for `[Cl-].[K+]` [KCl, potassium chloride], the “maximal response to KCl” value in assay [9] worked out at 8.7 ± 0.5 g. For the same compound, the 50% effective concentration (EC50) in assay [9] (read-out: KCl EC50 in the absence of antagonist) turned out to be 31000 ± 4300 µM.

For `C[C@@H](N)[C@H]1CC[C@H](C(=O)Nc2ccncc2)CC1` [Y-27632, (+)-(R)-trans-4-(1-amino-ethyl)-N-(4-pyridyl) cyclohexanecarboxamide dihydrochloride monohydrate], in assay [2] (10 μM Y-27632, 45 min pretreatment, at 3×10^−6 M carbachol, dihydrochloride monohydrate), the “inhibition of carbachol-evoked contractions” value was 58±11%. Moreover, the “effect on carbachol-evoked contractions” value in assay [2] (10 μM Y-27632, 10^−5-10^−4 carbachol) is reported as “this inhibition was not significant”; in assay [2] (10 μM Y-27632, 10^−9-3×10^−6 M carbachol), “significantly attenuated”; in [2] (pretreatment with 1 and 3 μM Y-27632), “no effect”. Further, the inhibition at 10 µM in assay [2] (Rattus norvegicus, 10 μM Y-27632, 45 min pretreatment, at 3×10^−6 M carbachol) was 58.1 ± 10.5%; in assay [1] (Rattus norvegicus, read-out: inhibition of NKA-induced contractions), 68.6 ± 12.7%. Further, the Kb was 2.14 µM in assay [2] (setting [14]) and 2.51 µM in assay [1] (setting [14]). Also, the “degree of attenuation of G protein-coupled receptor contractile responses (carbachol and NKA)” value in [2] (Y-27632 10 μM, carbachol and NKA responses together) is “approximately 50%”. Further, the “effect on NKA-induced contractions” value in assay [1] (10 μM Y-27632, all concentrations of agonist) was “significantly attenuated”. Moreover, the “attenuation of NKA-evoked bladder contractions” value in assay [1] (10 μM Y-27632, at 10^−6 M) came to 69±13%. In addition, in assay [9] (10 μM Y-27632, KCl 10-100 mM, dihydrochloride monohydrate), the “effect on contractile response to KCl” value is given as “no measureable effect”. In assay [4] (dihydrochloride monohydrate), the “attenuation of α,β-methylene ATP-evoked bladder contractions” value was 30.0±7.2% and 30±7% and ~30%. For the same compound, in [3] (setting [15]), the “effect on AUC of electrically-evoked bladder contractions” value is recorded as “significantly attenuated”. Further, the “effect on amplitude of electrically-evoked bladder contractions” value in assay [3] (setting [15]) is “significantly attenuated”. In addition, the “decrease in baseline bladder tension from baseline” value in [5] is reported as 47.0±2.5%. In assay [5], the “relaxation (decrease in baseline bladder tension)” value was found to be 0.40 ± 0.05 g. Besides, in assay [5], the “effect on baseline bladder tension / bladder tone” value is given as “decreased bladder tone”. For the same compound, in assay [6] (setting [13]), the “effect on contractile responses” value is “no effect”. For the same compound, the inhibitory constant (Ki) on ROCK II is 0.3 µM; on PRK1 (protein kinase N), 3.1 µM. The “effect on PRK2” value in assay [7] is listed as “inhibited”. Also, the “effect on a large number of other serine/threonine protein kinases” value in [10] is “minimal effect”. The “effect on bethanechol-evoked contractions” value in [8] (dihydrochloride monohydrate) is on record as “attenuates”. In addition, the “effect on AA-evoked contractile responses” value in assay [11] was “attenuated”.

`CN(C)CCCn1cc(C2=C(c3c[nH]c4ccccc34)C(=O)NC2=O)c2ccccc21` [GF109203X]: the “effect on contractile responses” value in assay [6] is on record as “inhibited”.

For the compound `Nc1ncnc2c1ncn2[C@@H]1O[C@H](COP(=O)(O)CP(=O)(O)OP(=O)(O)O)[C@@H](O)[C@H]1O` [α,β-methylene ATP], the “mean amplitude of contractile responses evoked by α,β-methylene ATP” value in [4] was 3.9 ± 0.5 g.
